Experimental data from patent publication US12545653B2, “Compound as PPAR agonist and application thereof” (USA Elixiria Biotech Inc., priority 2019, dated 2026).
Where “and” joins values, the source holds several entries; their conditions need not be identical. Identical values can stand only once.

How the values were obtained:
klotho gene = test: In vivo brain transcriptional activity of klotho gene (RT-PCR of brain mRNA); parameters: species or system mouse; settings: 10 mg/kg body weight/day tail vein; for mRNA level of klotho gene in the brain of the mouse relative to vehicle control group: after 10 days of continuous injection; for fold induction at 10 mg/kg: Mus musculus, iv, 720 h, after 30 days of continuous injection, read-out: mRNA level of klotho gene in the brain of the mouse relative to vehicle control group
Protocol: To verify this hypothesis, adult male Kunming mice were used in the experiments. […] The injection volume is 8 ml/kg body weight. Dimethyl sulfoxide (DMSO) was used as a vehicle control of the compounds. […] The RNA was then reverse-transcribed to the cDNA, and quantified by SYBR Green fluorescence quantitative PCR kit (HaiGene) and a quantitative PCR system (Bio-Rad Min-Opticon Type 2) were used for real-time fluorescent quantitative polymerase chain reaction (RT-PCR). The mouse gene primers were design as follows: • KLOTHO-forward 5′-[…]-3′; • LOTHO-reverse 5′-[…]-3′; • GAPDH-forward 5′-[…]-3′; • GAPDH-reverse 5′-[…]-3′.
Data analysis was performed using the 2^−ΔΔct method. Semi-quantitative values of gene expression were then normalized by the control mean.

PPARγ = target: T1, PPARγ (Homo sapiens, UniProt P37231); test: In vitro transcriptional activity of PPARγ gene (PPRE-luciferase reporter, HEK 293 T cells); assay type: cell-based; settings: HEK 293 T cells transfected with PPARγ expression and PPRE-luc plasmids, 21 hours; read-out: EC50 of PPARγ gene activation
T1 construct: expressed in transfected cells; host or cells: HEK 293 T cells
T1 sequence (P37231 1-505): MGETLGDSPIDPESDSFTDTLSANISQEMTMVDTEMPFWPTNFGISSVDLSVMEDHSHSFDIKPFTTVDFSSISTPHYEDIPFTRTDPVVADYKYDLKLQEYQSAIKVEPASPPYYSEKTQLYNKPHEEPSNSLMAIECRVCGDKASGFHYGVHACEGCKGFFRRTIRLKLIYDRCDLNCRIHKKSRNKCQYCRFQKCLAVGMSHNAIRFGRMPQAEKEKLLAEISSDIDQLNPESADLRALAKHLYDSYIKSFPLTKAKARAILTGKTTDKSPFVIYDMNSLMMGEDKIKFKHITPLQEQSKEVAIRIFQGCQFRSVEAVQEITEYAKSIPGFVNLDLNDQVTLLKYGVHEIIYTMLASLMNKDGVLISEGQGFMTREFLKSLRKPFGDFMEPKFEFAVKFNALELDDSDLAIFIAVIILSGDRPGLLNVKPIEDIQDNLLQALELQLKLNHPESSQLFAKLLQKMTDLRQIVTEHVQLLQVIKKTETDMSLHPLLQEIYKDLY
Excerpt: In this experiment, the PPARγ gene was used as target gene to detect the in vitro transcription activity of the compounds. The compounds of interest were detected was first dissolved with dimethyl sulfoxide (DMSO). […] First two plasmids were constructed: PPARγ protein expression plasmid and luciferase reporter plasmid. They are both from the lentiviral plasmid pLV-CMVIE-ZsGreen-Puro, whose DNA sequence contains the cytomegalovirus immediate early (CMVie) promoter, ZsGreen and Puro dual reporter. The PPARγ expression plasmid pLV-CMVIE-PPAR[…]-ZsGreen-Puro was constructed by cloning full-length coding sequences of the pertinent receptors into pHBLV-CMVIE-ZsGreen-Puro vector. To construct the luciferase (luc) reporter plasmid pLV-PPRE-luc-ZsGreen-Puro, the CMVie promoter in plasmid pHBLV-CMVIE-ZsGreenPuro was first replaced by a peroxisome proliferator responsive element (PPRE) containing fragments comprised the nucleotide sequence 50-[…], repeated four times in tandem, to generate a new plasmid, at a multiple cloning site of which the luc gene was then inserted. […] The compounds used for screening are representatives for compounds listed in Table 2, and Tables 3 of the present invention. […] Cells were distributed in 10-cm tissue culture plates at a density of 5.5 million cells per plate, and then transfected with the luciferase reporter plasmid (6 nanogram/plate) and the PPARγ expression plasmid (18 nanogram/plate). Cells were cultured for 6 hours. […] Then the cells were distributed in 96-well plates at a density of 20,000 cells per well. After incubation for 6 h, compounds or control with different concentration were placed into each well, resulting in the finical concentration of […] with each concentration in triplicate. Twenty-one hours later, promoter activation was detected by the addition of SteadyLite (PerkinElmer, Waltham, MA) and GloMax 96 Microplate Luminometer (Promega, Madison, WI). The amount of Luminometer emitted from each well is positively correlated with the expression of PPARγ gene. A three-parameter Sigmoid function curve was used to fit the obtained data. The abscissa represents the logarithmic value of the concentration, and the ordinate represents the percentage of PPARγ gene activation relative to those of the control. […] In Statistical analysis, the coefficient of variation is used to measure the robustness and repeatability of the experiment. […] The difference is significant with P<0.05. EC50 is a parameter of its activity.

klotho gene promoter = test: In vitro transcriptional activity of klotho gene (KL-Luc-3 luciferase cell line); assay type: cell-based; settings: 16 h, KL-Luc-3 cells, 16 hours incubation
Excerpt: The activities of these carbonyl-containing cyclic compounds are indicated by the increased expression of klotho gene. […] The present invention retains the DNA fragment of the klotho gene promoter, but replaces the DNA sequence of the coding region of the klotho gene with those of luciferase, so that the degree of activation of the klotho gene promoter and the expression of the klotho gene will be sensitively determined by detecting the luciferase luminescence signal.
Klotho is an important downstream gene of PPARγ pathway. The following experiments tested the properties of the compounds in Table 2 and 3 to activate the klotho gene in vitro. First, a stable cell line, KL-Luc, was constructed. The klotho gene carried by the cell line retained the DNA sequence of klotho gene promoter, but the coding sequence of the klotho gene was replaced with luciferase. KL-Luc fragment includes a promoter sequence of the klotho gene (a DNA region of 18,000 base pairs in length upstream of the transcription start site of the gene) and a luciferase-encoding sequence. To construct the KL-Luc sequence containing lentiviral vector, the KL-Luc fragment was cloned into the pDONR vector using BP recombinase, so that the target fragment had attL recombination sites on both sides. Then the KL-Luc fragment was transferred from the pDONR vector to a lentiviral vector (without exogenous promoter) pLenti6/BLOCK-IT-DEST. The constructed lentiviral vector of the target fragment was then transfected into HEK293T cells, and then the KL-Luc gene lentiviral expression vector and the […] were co-transfected into HEK293T cells to perform lentiviral packaging. The virus was harvested, and virus titer was calculated. And the lentivirus was used to infect target cells. The stable strains were screened by adding drugs. Finally, monoclonal cell lines were selected from polyclonal cells by cell cloning. The effective luciferase expression of each monoclonal cell line was determined by quantitative polymerase chain reaction (qPCR). The inventors chose a third monoclonal cell line (KL-Luc-3) to continue the compound screening. The compounds of interest were the compounds in Table 2 and 3. At the same time, rosiglitazone and pioglitazone were used as a control. KL-Luc-3 cells were divided into 96-well plates at 5000 cells in 80 microL per well, cultured in a 37° C. carbon dioxide incubator with serum-free Duchenne's Modified Eagle's Medium (DMEM) for 6 hours, and then the compounds were added to a final concentration of 0, 0.1, 0.3, 1, 3, 10, 30 micromole/L, with each concentration in triplicate. After 16 hours of incubation, the SteadyLite (PerkinElmer, Waltham, MA) and the GloMax Microplate Luminometer (Promega, USA) were used for quantitation of luciferase activity. The amount of luminescence emitted from each well is positively related to the transcriptional activity of the klotho promoter. A three-parameter Sigmoid function curve was used to fit the obtained data. The abscissa represents the logarithmic value of the concentration, and the ordinate represents the percentage of the activity relative to those of the control. […] In Statistical analysis, the coefficient of variation is used to measure the robustness and repeatability of the experiment. […] The difference is significant with P<0.05. EC50 is a parameter of its activity. The lower the EC50 value, the higher the activity of corresponding compound.

db−/db− mice = test: Diabetic peripheral neuropathy model, Von Frey threshold, sciatic nerve ROS and MDA; assay type: in vivo, mouse; settings: in food 10 mg/kg body weight/day (pregabalin 30 mg/kg body weight/day); for level of MDA in the sciatic nerve after 10 week treatment / level of mitochondrial ROS in the sciatic nerve after 10 week treatment: compared with healthy control group; for mechanical pain threshold after 10 week treatment: compared with normal control group
Protocol: Male 5-6 week-old male db^−/db^− mice were used in the experiment, and their normoglycemic heterozygous littermates were used as controls. db^−/db^− is a commonly used type 2 diabetes animal model. The compounds was dissolved in DMSO and mixed into food pellets. The animals were given ad libitum access to the pellets, beginning from 8 to 9 weeks of age for 10 weeks. […] The method for detecting mice hindlimb hypersensitivity is performed using Von Frey filaments. […] The difference is significant with P<0.05. The increase of mitochondrial reactive oxygen species (ROS) in the sciatic nerve of mice, which in turn leads to the increase of intracellular malondialdehyde (MDA), is the etiology of this type of neuropathic pain. The efficacy of compound to treat the root cause of the disease was evaluated by measurement of the levels of MDA and mitochondrial ROS from the sciatic nerves.

APP/PS1 transgenic mice = test: Alzheimer's disease model, eight-arm radial water maze and brain gene expression; assay type: in vivo, mouse; settings: 30 days in food, 10 mg/kg body weight/day (donepezil 3 mg/kg body weight/day), 5 on the first day
Excerpt: A common indicator used in academia in memory and dementia experiments is the number of errors in the water maze (reference memory). More errors mean poorer memory. On the last 3 days of dosing, eight-arm radial water maze was used by experimenters who were blind to drug treatment. As a classic experimental instrument, to detect slight deficits in learning and memory, the eight-arm water maze is more sensitive than not only Morris maze, but also Six-arm radial water maze. For details, see reference 8: Alamed J et al. Two-day radial-arm water maze learning and memory task; robust resolution of amyloid-related memory deficits in transgenic mice [J]. […] This experiment uses an eight-arm water maze built in accordance with the above literature. The eight-arm water maze is placed in a basin with an interior diameter of 102 cm. Each arm measures 30 cm long, 14.5 cm wide, and 40 cm high. Escape platform is located at the end of one of the arms. In the reference memory version of the task described here, the goal arm is held constant for all trials, with a different start arm on successive trials. On day one, mice received 12 trials, with trials alternating between visible and hidden platform. On day 2 and 3, mice received 12 additional trials but the platform was kept hidden throughout the trials. Entry into an incorrect arm was scored as a spatial reference error. Errors were averaged into three trial blocks, with four blocks per day, e.g., the first block (the 1st to 3rd trial), the second block (the 4th to 6th trial), and so on. […]. The line charts were made with the number of blocks as the abscissa and the average of the number of errors as the ordinate. At the end of the experiments, the cerebral cortex and hippocampus of the mice were removed, RNA was extracted, and the expression of many genes was analyzed by semi-quantitative RT-PCR. […] The difference is significant with P<0.05.

[1] = test system: dIoN-CCI rat model of trigeminal neuropathic pain; test: Trigeminal neuralgia model (dIoN-CCI), Von Frey mechanical threshold; settings: dIoN-CCI rats
Excerpt: A common rat model of trigeminal neuralgia is a chronic compression injury model (CCI) caused by ligation of the infraorbital nerve (IoN). In the present study, an improved rat model of trigeminal neuropathic pain was used, in which CCI is induced by ligation of distal segment of IoN (dIoN). Wild type male Sprague-Dawley rats with body weight 250 to 260 grams underwent dIoN-CCI surgery experiments. The mechanical threshold of pain in rats without surgery experiments will exceed 6 grams. If the dIoN-CCI surgery is successful, it will reduce the pain threshold to less than 2 grams.
The mice were divided into the following 11 groups with 4 to 5 mice in each group. The formulation used for transdermal treatment is cream. […] The compound administration of each group starts on the third day after successful dIoN-CCI surgery. […] The method for detecting rat facial hypersensitivity is performed using Von Frey filaments. An analysis of variance (ANOVA) and Dunnett post hoc comparison test are used to compare the significance of the differences between different groups of data. The difference is significant with P<0.05.

SMILES | mRNA level of klotho gene in the brain of the mouse relative to vehicle control group (klotho gene) | fold induction at 10 mg/kg (klotho gene) | EC50 (PPARγ) | other results
CCc1ccc(CCCCc2ccc3c(c2)NC(=O)CC3)cc1 [ELB00702, 7-(4-(4-ethylphenyl)butyl)-3,4-dihydroquinolin-2(1H)-one] | more than twice | > 5 | < 6.4 µM and 3.1 µM | 
CCc1ccc(CCCCc2ccc3c(c2)OCCC(=O)N3)cc1 [ELB00827, 8-(4-(4-ethylphenyl)butyl)-2,3-dihydrobenzo[b][1,4]oxazepin-4(5H)-one] | more than twice | > 5 | < 6.4 µM | EC50 (klotho gene promoter): < 9.7 µM
CCc1ccc(CC/C=C/c2ccc3c(c2)NC(=O)CO3)cc1 [ELB00993, (E)-6-(4-(4-ethylphenyl)but-1-en-1-yl)-2H-benzo[b][1,4]oxazin-3(4H)-one] | more than twice | > 5 | < 6.4 µM | 
CCc1ccc(CC/C=C/c2ccc3c(c2)C(=O)CCO3)cc1 [ELB001080, (E)-6-(4-(4-ethylphenyl)but-1-en-1-yl)chroman-4-one] |  |  | < 6.4 µM | level of MDA in the sciatic nerve after 10 week treatment (db−/db− mice): reduced; level of mitochondrial ROS in the sciatic nerve after 10 week treatment (db−/db− mice): reduced; mechanical pain threshold after 10 week treatment (db−/db− mice): significantly improved; number of errors in water maze on the third day (APP/PS1 transgenic mice): comparable to that of ELB00824
CCc1ccc(C/C=C/c2cccc(CC3NCC(=O)N3)c2)cc1 (centres unmarked) [ELB001090, (E)-2-(3-(3-(4-ethylphenyl)prop-1-en-1-yl)benzyl)imidazolidin-4-one] | more than twice |  | < 6.4 µM and 3.9 µM | EC50 (klotho gene promoter): < 9.7 µM
NCC1(CC(=O)O)CCCCC1 [gabapentin, reference compound] |  |  |  | side effect at the time of administration [1]: drowsiness; duration of the anti-allodynic effect ([1]; oral gabapentin group (1 mg/kg body weight)): 1 h
CC(C)C[C@H](CN)CC(=O)O [pregabalin, reference compound] |  |  |  | level of MDA in the sciatic nerve after 10 week treatment (db−/db− mice): significantly higher; level of mitochondrial ROS in the sciatic nerve after 10 week treatment (db−/db− mice): significantly higher; mechanical pain threshold after 10 week treatment (db−/db− mice): no difference
